From US5696117A, “Benzoxazine antimicrobial agents” (Ortho Pharmaceutical Corporation, priority 1995, dated 1997)
Counter-ions that a name gives are not always drawn.

Molecular target: T1, Kinase A and SpoOF (Bacillus subtilis, UniProt P16497)
T1 construct: made in house; host or cells: recombinant E. coli (overexpression)
T1 sequence (P16497 1-606): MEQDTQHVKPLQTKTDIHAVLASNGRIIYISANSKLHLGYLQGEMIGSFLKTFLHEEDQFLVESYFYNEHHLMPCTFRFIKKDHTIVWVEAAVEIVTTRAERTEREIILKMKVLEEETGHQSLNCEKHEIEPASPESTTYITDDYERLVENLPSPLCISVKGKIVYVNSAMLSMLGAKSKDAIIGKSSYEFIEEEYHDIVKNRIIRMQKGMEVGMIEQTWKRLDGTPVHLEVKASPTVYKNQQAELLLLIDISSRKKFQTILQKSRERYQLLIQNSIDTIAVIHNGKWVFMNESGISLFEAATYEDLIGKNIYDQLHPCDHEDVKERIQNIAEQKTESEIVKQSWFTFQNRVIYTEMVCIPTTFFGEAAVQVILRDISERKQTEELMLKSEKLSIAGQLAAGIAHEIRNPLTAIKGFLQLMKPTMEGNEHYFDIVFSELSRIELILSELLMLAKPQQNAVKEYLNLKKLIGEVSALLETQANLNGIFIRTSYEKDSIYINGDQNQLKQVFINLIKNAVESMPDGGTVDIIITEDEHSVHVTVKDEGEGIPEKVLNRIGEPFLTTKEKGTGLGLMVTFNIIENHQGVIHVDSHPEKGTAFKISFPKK
Assay: Autophosphorylation of Kinase A and Transphosphorylation of SpoOF Assay (HPK in vitro assay)
Format: biochemical
Details: inhibition of KinA autophosphorylation / SpoOF transphosphorylation, inhibitor concentrations from 1 to 500 μM
Experimental: 1. Autophosphorylation of Kinase A and Transphosphorylation of SpoOF Assay
To study the effect of the compounds of the present invention on the signal transduction process in bacteria, the inhibiting effect of the compounds on the sporulation operon proteins Kinase A and SpoOF was examined. Specifically, the inhibition of autophosphorylation of Kinase A and the transphosphorylation of SpoOF was determined in the following assays. The SpoOF response regulator is the primary substrate for phosphorylation by the protein kinase, Kin A, involved in the sporulation process in bacteria. See D. Burbulys, K. A. Trach, J. A. Hoch, Cell, 64, 545-552 (1991). SpoOF and KinA were prepared from recombinant E. coli overexpressing the proteins (J. Cavanagh et al, Amino Acids, 6, 131-140 (1994) and references therein).
The following stock reagents were either prepared and used promptly or stored at the indicated temperature:
8× Salts: 2M KCl (5 mL), 1M MgCl2 (800 mL), 1M CaCl2 (100 mL), 10 mg/mL phenylmethylsulfonyl fluoride (200 mL), 1M dithioreitol (50 mL), 0.25M Na2 EDTA (32 mL) and H2 O 3.82 mL (-20° C.)
5× Loading Dye: 0.5M TRIS-HCl-pH 6.8 (7.5 mL), 10% SDS (2 mL) 0.1% bromophenol blue (0.5 mL), 100% glycerol (3 mL) and 12.5M 2-mercaptoethanol (0.3 mL)
1-1.3 mg/mL KinA:15 mM TRIS-HCl, pH 8.0, 6 mM KCl; 4 mM 2-mercaptoethanol; 40% glycerol (-20° C.)
1 mg/mL SpoOF: 17.5 mM TRIS-HCl, pH 8.0; 0.7 mM KCl; 0.7 mM MgCl2; 0.7 mM CaCl2; 5mM 2-mercaptoethanol; 30% Glycerol (-20° C.)
5% Stacking Gel: 40% 29:1 acrylamide:bis acrylamide (1.25 mL), 0.5M TRIS-HCl, pH 6.8 (2.5 mL), 10% SDS (0.1 mL), D-H2 O (6.15 mL) 10% ammonium persulfate (100 mL) and TEMED (25 mL)
SDS Running Buffer: TRIS-BASE (3.02 g), glycine (14.4 g) SDS (1 g), D-H2 O (to 1 L)
The reaction mixture was prepared from 8× Salts (87 μL), 1M TRIS, pH 8 (118 μL), 50% glycerol (63 μL), SpoOF (14.1 μL) and KinA (7.0 μL). Microcentrifuge tubes were charged with the reaction mixture (18.5 μL) and a 1.0 mM solution of the test compound in 5% DMSO (18.5 μL), and incubated for 15 min on ice. 100 mM ATP solution (3.0 μl, containing 625 μCi [^32 P]ATP) was added, and the mixture left for 10 minutes at room temperature. The reaction was quenched with 5× loading dye (10 μL per tube) and the samples were loaded on a prepared 5% Stacking Gel, or stored on dry ice until ready for use. The prepared wells were filled with SDS Running Buffer, samples were loaded into the wells, and 80 volts were applied to the gel until the dye front reached the bottom of the stacking gel. The voltage was then increased to 250 volts until electrophoresis was complete. Radioactive bands in the gel corresponding to phosphorylated KinA and SpoOF were imaged and quantitated with a phosphoimager.
If either enzyme was inhibited (as evidenced by the absence of labelled protein in the developed gel), an IC50 was calculated by running the assay with a range of inhibitor concentrations from 1 to 500 μM. After electrophoresis of the reaction mixtures, percent inhibition was determined by measuring the concentration of radioactive phosphorus with a phosphoimager and calculating the values using a software program (BioRad Molecular Analyst). IC50 values of less than 500 μM are considered active.

Going from “3,4-Dihydro-4-(2,4-dichlorobenzyl)-2-{2-[4-(2-guanidinoethyl)phenoxy]ethyl}-3-oxo-2H-1,4-benzoxazine [Compound 141]” to `CC(C)(C)OC(=O)NCc1ccc(OCCC2Oc3ccccc3N(Cc3cccc(Cl)c3)C2=O)cc1` (stereo not drawn) [Compound 1, 2-[2-[4-(t-Butoxycarbonylaminomethyl)phenoxy]ethyl]-4-(3-chlorobenzyl)-3,4-dihydro-3-oxo-2H-1,4-benzoxazine], the IC50 rises from 37 µM to 253 µM (6.8-fold).

`CC(C)(C)OC(=O)NCc1ccc(OCCC2Oc3ccccc3N(Cc3ccc(Cl)cc3)C2=O)cc1` (stereo not drawn) [Compound 3, 2-[2-[4-(t-Butoxycarbonylaminomethyl)phenoxy]ethyl]-4-(4-chlorobenzyl)-3,4-dihydro-3-oxo-2H-1,4-benzoxazine] and `CC(C)(C)OC(=O)NCCc1cccc(OCCC2Oc3ccccc3N(Cc3ccc(Cl)cc3)C2=O)c1` (stereo not drawn) [Compound 7, 2-{2-[3-(2-t-Butoxycarbonylaminoethyl)phenoxy]ethyl}-4-(4-chlorobenzyl)-3,4-dihydro-3-oxo-2H-1,4-benzoxazine] are within 1.5-fold of each other in IC50: 283 µM for the first, 308 µM for the second.

`NCc1cccc(OCCC2Oc3ccccc3N(Cc3ccc(Cl)cc3)C2=O)c1` (stereo not drawn) [Compound 10, 2-[2-[3-(Aminomethyl)phenoxy]ethyl]-4-(4-chlorobenzyl)-3,4-dihydro-3-oxo-2H-1,4-benzoxazine] and `NCc1cccc(OCCC2Oc3ccccc3N(Cc3ccccc3Cl)C2=O)c1` (stereo not drawn) [Compound 12, 2-[2-[3-(Aminomethyl)phenoxy]ethyl]-4-(2-chlorobenzyl)-3,4-dihydro-3-oxo-2H-1,4-benzoxazine] are within 1.5-fold of each other in IC50: 122 µM for the first, 140 µM for the second.

First: CC(C)(C)OC(=O)NCc1ccc(OCCC2Oc3ccccc3N(Cc3ccccc3Cl)C2=O)cc1 (stereo not drawn) [Compound 13, 2-[2-[4-(t-Butoxycarbonylaminomethyl)phenoxy]ethyl]-4-(2-chlorobenzyl)-3,4-dihydro-3-oxo-2H-1,4-benzoxazine]
Second: NCc1ccc(OCCC2Oc3ccccc3N(Cc3ccccc3Cl)C2=O)cc1 (stereo not drawn) [Compound 14, 2-[2-[4-(Aminomethyl)phenoxy]ethyl]-4-(2-chlorobenzyl)-3,4-dihydro-3-oxo-2H-1,4-benzoxazine]
The IC50 of the first is 1.6-fold higher: 272 µM for the first, 172 µM for the second.

Going from `CC(C)(C)OC(=O)NCCc1cccc(OCCC2Oc3ccccc3N(Cc3ccccc3Cl)C2=O)c1` (stereo not drawn) [Compound 15, 2-[2-[3-(2-(t-Butoxycarbonylamino)ethyl)phenoxy]ethyl]-4-(2-chlorobenzyl)-3,4-dihydro-3-oxo-2H-1,4-benzoxazine] to `CC(C)(C)OC(=O)NCCc1ccc(OCCC2Oc3ccccc3N(Cc3ccccc3Cl)C2=O)cc1` (stereo not drawn) [Compound 17, 2-[2-[4-(2-(t-Butoxycarbonylamino)ethyl)phenoxy]ethyl]-4-(2-chlorobenzyl)-3,4-dihydro-3-oxo-2H-1,4-benzoxazine], the IC50 rises from 165 µM to 352 µM (2.1-fold).

Going from `NCCc1ccc(OCCC2Oc3ccccc3N(Cc3ccccc3Cl)C2=O)cc1` (stereo not drawn) [Compound 18, 2-[2-[4-(2-Aminoethyl)phenoxy]ethyl]-4-(2-chlorobenzyl)-3,4-dihydro-3-oxo-2H-1,4-benzoxazine] to `N=C(N)NCCc1ccc(OCCC2Oc3ccccc3N(Cc3ccccc3Cl)C2=O)cc1` (stereo not drawn) [Compound 20, 4-(2-Chlorobenzyl)-2-[2-[4-(2-guanidinoethyl)phenoxy]ethyl]-3,4-dihydro-3-oxo-2H-1,4-benzoxazine], the IC50 falls from 264 µM to 16 µM (16-fold).

First: N=C(N)NCc1ccc(OCCC2Oc3ccccc3N(Cc3ccc(Cl)cc3)C2=O)cc1 (stereo not drawn) [Compound 21, 4-(4-Chlorobenzyl)-2-[2-[4-(guanidinomethyl)phenoxy]ethyl]-3,4-dihydro-3-oxo-2H-1,4-benzoxazine]
Second: Cc1ccc2c(c1)N(Cc1cccc(Cl)c1)C(=O)C(CCOc1ccc(CCNC(=N)N)cc1)O2 (stereo not drawn) [Compound 24, 4-(3-Chlorobenzyl)-3,4-dihydro-2-[2-[4-(2-guanidinoethyl)phenoxy]ethyl]-6-methyl-3-oxo-2H-1,4-benzoxazine]
The IC50 of the first is 2.2-fold lower: 26 µM for the first, 56 µM for the second.

Compared with `N=C(N)NCCc1ccc(OCCC2Oc3cccnc3N(Cc3cccc(Cl)c3)C2=O)cc1` (stereo not drawn) [Compound 25, 4-(3-Chlorobenzyl)-3,4-dihydro-2-[2-[4-(2-guanidinoethyl)phenoxy]ethyl]-3-oxo-2H-pyrido[3,2-b]-1,4-oxazine], `CC(C)(C)OC(=O)N=C(NCCc1ccc(OCCC2Oc3ccccc3N(Cc3ccccc3)C2=O)cc1)NC(=O)OC(C)(C)C` (stereo not drawn) [Compound 27] is 8.3-fold higher in IC50: 41 µM for the first, 340 µM for the second.

`N=C(N)NCCc1ccc(OCCC2Oc3ccccc3N(Cc3ccccc3)C2=O)cc1` (stereo not drawn) [Compound 28, 4-Benzyl-3,4-dihydro-2-{2-[4-[2-guanidinoethyl]phenoxy]ethyl}-3-oxo-2H-1,4-benzoxazine Hydrochloride 0.7 Hydrate] and `COc1ccccc1CN1C(=O)C(CCOc2ccc(CCNC(=N)N)cc2)Oc2ccccc21` (stereo not drawn) [Compound 29, 3,4-Dihydro-2-{2-[4-(2-guanidinoethyl)phenoxy]ethyl}-4-(2-methoxybenzyl)-3-oxo-2H-1,4-benzoxazine] are within 1.5-fold of each other in IC50: 44 µM for the first, 54 µM for the second.

First: N=C(N)NCCc1ccc(OCCC2Oc3ccccc3N(Cc3cccc(F)c3)C2=O)cc1 (stereo not drawn) [Compound 31, 3,4-Dihydro-4-(3-fluorobenzyl)-2-{2-[4-(2-guanidinoethyl)phenoxy]ethyl}-3-oxo-2 H-1,4-benzoxazine]
Second: COc1cccc(CN2C(=O)C(CCOc3ccc(CCNC(=N)N)cc3)Oc3ccccc32)c1 (stereo not drawn) [Compound 33, 3,4-Dihydro-2-{2-[4-(2-guanidinoethyl)phenoxy]ethyl}-4-(3-methoxybenzyl)-3-oxo-2H-1,4-benzoxazine]
The IC50 of the first is 3.2-fold lower: 46 µM for the first, 145 µM for the second.

Compared with `N=C(N)NCCc1ccc(OCCC2Oc3ccccc3N(Cc3cccc(OCc4ccccc4)c3)C2=O)cc1` (stereo not drawn) [Compound 35, 4-(3-Benzyloxybenzyl)-3,4-dihydro-2-{2-[4-(2-guanidinoethyl)phenoxy]ethyl}-3-oxo-2H-1,4-benzoxazine], `N=C(N)NCCc1ccc(OCCC2Oc3ccccc3N(Cc3cccc(O)c3)C2=O)cc1` (stereo not drawn) [Compound 36, 3,4-Dihydro-2-{2-[4-(2-guanidinoethyl)phenoxy]ethyl}-4-(3-hydroxybenzyl)-3-oxo-2H-1,4-benzoxazine] is 3-fold higher in IC50: 24 µM for the first, 72 µM for the second.

Going from `COc1ccc(CN2C(=O)C(CCOc3ccc(CCNC(=N)N)cc3)Oc3ccccc32)cc1` (stereo not drawn) [Compound 37, 3,4-Dihydro-2-{2-[4-(2-guanidinoethyl)phenoxy]ethyl}-4-(4-methoxybenzyl)-3-oxo-2H-1,4-benzoxazine] to `N=C(N)NCCc1ccc(OCCC2Oc3ccccc3N(Cc3ccc(-c4ccccc4)cc3)C2=O)cc1` (stereo not drawn) [Compound 38, 3,4-Dihydro-2-{2-[4-(2-guanidinoethyl)phenoxy]ethyl}-3-oxo-4-(4-phenylbenzyl)-2H-1,4-benzoxazine], the IC50 falls from 51 µM to 34 µM (1.5-fold).
